Read-outs that look alike come from different tables or passages of the source.
Legend:
[1] = assay type: in vivo
MC 13/C mammary tumor = experiment: antitumor activity on subcutaneously transplanted mammary tumor in mice (study BCM-1428)
Experimental: A product is considered to be active if log10 killed cells is greater than or equal to 0.7. A product is considered to be very active if the log10 killed cells is greater than 2.8.
30 to 60 mg of an MC 13/C mammary tumor fragment are transplanted bilaterally, subcutaneously, into the animals subjected to the experiment, generally mice, on day 0. The animals bearing the tumors are randomized before being subjected to the various treatments and controls. In the case of treatment of advanced tumors, the tumors are left to develop until the desired size, the animals having insufficiently developed tumors being eliminated. The animals selected are divided up randomly so as to undergo the treatments and the controls. […] The chemotherapy generally begins from 3 to 22 days after the tumor transplant, according to the type of tumor, and the animals are observed every day. The various groups of animals are weighed three or four times a week until the maximum weight loss is obtained, and then the groups are weighed at least once a week until the end of the trial.
The tumors are measured two or three times a week until the tumor reaches approximately 2 g or until the animal's death if the latter occurs before the tumor reaches 2 g. The animals are autopsied when they are sacrificed.
The antitumor activity is determined as a function of the various parameters recorded.
0.2 ml per mouse is prepared, according to the usual technique, for intravenous administration, from a commercial solution of 5 cm^3 containing 250 mg of 5 FU to be diluted with 5% glucose in water.
These solutions are administered simultaneously, after suitable dilution, by infusion.

[2] = sc VEGF-Trap 2.5 mg/kg/day (total 15), days 4,7,11,14,18,21
[3] = sc VEGF-Trap 10 mg/kg/day (total 60), days 4,7,11,14,18,21
[4] = sc VEGF-Trap 25 mg/kg/day (total 150), days 4,7,11,14,18,21
[5] = sc VEGF-Trap 40 mg/kg/day (total 240), days 4,7,11,14,18,21
[6] = iv 5-FU 34.6 mg/kg/day (total 103.8), days 4,11,18
[7] = iv 5-FU 55.8 mg/kg/day (total 167.4), days 4,11,18
[8] = iv 5-FU 90 mg/kg/day (total 270), days 4,11,18
[9] = iv 5-FU 145 mg/kg/day (total 435), days 4,11,18

Molecule: VEGF-Trap: fusion protein: VEGFR1 signal sequence, Ig domain D2 of VEGFR1, Ig domain D3 of VEGFR2, Fc domain of IgG1
- % weight loss at the lowest point [1, 2]: 0.9%
- Death due to the treatment [1, 2]: 0/5
- % weight loss at the lowest point [1, 3]: 1.1%
- Death due to the treatment [1, 3]: 0/5
- % weight loss at the lowest point [1, 4]: 1.1%
- Death due to the treatment [1, 4]: 0/5
- % weight loss at the lowest point [1, 5]: 2.3%
- Death due to the treatment [1, 5]: 0/5
- % T/C (inhibition of tumor growth at day 24) (MC 13/C mammary tumor; [2]): 32%
- T-C days (delay of tumor growth) (MC 13/C mammary tumor; [2]): 5.2 days
- lck (log cells killed) (MC 13/C mammary tumor; [2]): 0.6
- % T/C (inhibition of tumor growth at day 24) (MC 13/C mammary tumor; [3]): 9%
- T-C days (delay of tumor growth) (MC 13/C mammary tumor; [3]): 12.1 days
- lck (log cells killed) (MC 13/C mammary tumor; [3]): 1.3
- % T/C (inhibition of tumor growth at day 24) (MC 13/C mammary tumor; [4]): 8%
- T-C days (delay of tumor growth) (MC 13/C mammary tumor; [4]): 13.9 days
- lck (log cells killed) (MC 13/C mammary tumor; [4]): 1.5
- % T/C (inhibition of tumor growth at day 24) (MC 13/C mammary tumor; [5]): 4%
- T-C days (delay of tumor growth) (MC 13/C mammary tumor; [5]): 12.7 days
- lck (log cells killed) (MC 13/C mammary tumor; [5]): 1.4

Molecule: O=c1[nH]cc(F)c(=O)[nH]1 [5-FU, 5-fluorouracil, reference compound]
- % weight loss at the lowest point [1, 6]: +2.3%
- Death due to the treatment [1, 6]: 0/5
- % weight loss at the lowest point [1, 7]: 1.1%
- Death due to the treatment [1, 7]: 0/5
- % weight loss at the lowest point [1, 8]: 4.8%
- Death due to the treatment [1, 8]: 0/5
- % weight loss at the lowest point [1, 9]: 8.7%
- Death due to the treatment [1, 9]: 1/5
- % T/C (inhibition of tumor growth at day 24) (MC 13/C mammary tumor; [6]): 34%
- T-C days (delay of tumor growth) (MC 13/C mammary tumor; [6]): 4.6 days
- lck (log cells killed) (MC 13/C mammary tumor; [6]): 0.5
- % T/C (inhibition of tumor growth at day 24) (MC 13/C mammary tumor; [7]): 12%
- T-C days (delay of tumor growth) (MC 13/C mammary tumor; [7]): 7.8 days
- lck (log cells killed) (MC 13/C mammary tumor; [7]): 0.8
- % T/C (inhibition of tumor growth at day 24) (MC 13/C mammary tumor; [8]): 0%
- T-C days (delay of tumor growth) (MC 13/C mammary tumor; [8]): 12.5 days
- lck (log cells killed) (MC 13/C mammary tumor; [8]): 1.3
- % T/C (inhibition of tumor growth at day 24) (MC 13/C mammary tumor; [9]): Toxic
